Data published in patent US20100022559A1, “BISOXIMES AS FUNGICIDES” (BAYER CROPSCIENCE AG, priority 2006, published 2010).

Assay: logP determination by HPLC on a reversed-phase column (C 18), EEC Directive 79/831 Annex V.A8
Type: physicochemical
Settings: for chromatographic logP: reversed-phase HPLC column (C 18), HCO2H, HPLC reversed-phase column (C 18), 43° C., read-out: logP (HCO2H)
Protocol: The stated logP values were determined in accordance with EEC Directive 79/831 Annex V.A8 by HPLC (high performance liquid chromatography) on a reversed-phase column (C 18). Temperature: 43° C.

[1] = method marker [b], isomer A / isomer B / isomer mixture as noted in the cell
[2] = method marker [a] (footnote not shown), isomer A / isomer B / isomer mixture as noted in the cell

C=C(CON=C(C)c1cccc(C)n1)CON=C(N)c1nc(C)c(Cl)c(C)n1 [compound 184]
logP [1]: 2.61^[b]

CC(=NOC(=O)NCCCC(C)CNC(=O)ON=C(C)c1cc(C)cc(C)n1)c1cc(C)cc(C)n1 (stereo not drawn) [compound 862]
logP (value marked [a]): 2.06^[a]

CC(=NOCCCON=C(C)c1cccc(CC(C)C)n1)c1cccc(CC(C)C)n1 [Compound 134]
logP [2]: 7.36^[a]

Cc1cccc(C(=NOCCCON=C(c2cccc(C)n2)C(C)C)C(C)C)n1 (single isomer, unassigned) [Compound 88]
logP [2]: 5.52^[a] (isomer B)

Cc1nc(/C(N)=N/OCO/N=C(\N)c2nc(C)c3c(n2)CCCC3)nc2c1CCCC2 [compound 39]
logP [1]: 2.29^[b]

CC(=NOCC1(CON=C(C)c2cc(C)cc(C)n2)CC(C(C)(C)C)=NO1)c1cc(C)cc(C)n1 (stereo not drawn) [compound 642]
logP (method marked [b] in Table 1): 2.62^[b]

CC(=NOCC(C)CON=C(C)c1ccc(Cl)s1)c1cccc(C)n1 (stereo not drawn) [compound 498]
logP (value marked [b]): 5.36^[b]

CC(=NOCCC(C)CCON=C(C)c1ccccn1)c1ccccn1 (stereo not drawn) [compound 747]
logP (method marked [b] in Table 1): 4.43^[b]

C=C(CON=C(C)c1cccc(C)n1)CON=C(c1ccccc1)c1ncccc1C [compound 351]
logP (value marked [b]): 3.89^[b]

CC(=NOCC(C)(C)CON=C(C)c1cc(C)cc(C)n1)c1cccc(C)n1 [Compound 487]
logP (value marked [b]): 3.33^[b]

COCc1nc(/C(N)=N/OCO/N=C(\N)c2nc(COC)c(C)c(COC)n2)nc(COC)c1C [compound 40]
logP [1]: 1.35^[b]

CC(=NOCCCCON=C(C)c1sc(C)nc1C)c1cccc(C)n1 (single isomer, unassigned) [compound 540]
logP (method marked [b] in Table 1): 3.56^[b] (isomer A)

CC(=NOCC1(CON=C(C)c2ccc(C)c(C)n2)CC(C(C)(C)C)=NO1)c1ccc(C)c(C)n1 (stereo not drawn) [compound 631]
logP (method marked [b] in Table 1): 3.65^[b]

CC(=NOCCCON=C(C)c1nc(C)c(C)s1)c1nc(C)c(C)s1 [compound 51]
logP [1]: 5.03^[b]

CCC(C)(CON=C(C)c1cc(C)cc(C)n1)CON=C(C)c1cc(C)cc(C)n1 (stereo not drawn) [Compound 794]
logP (value marked [b]): 3.91^[b]
logP (value marked [c]): 7.18^[c]

C/C(=N\OCC(C)CO/N=C(\C)c1cccc(C)n1)c1cccc(C)n1 [1-(6-methylpyridin-2-yl)ethanone O,O′-(2-methylpropane-1,3-diyl)oxime]
chromatographic logP: 2.31

Cc1ccc(C(=NOCCCON=C(c2ccc(C)c(C)n2)C(C)C)C(C)C)nc1C (mixture of isomers) [compound 237]
logP [2]: 4.00^[a]

CCCC(=NOCC1(CON=C(CCC)c2cccc(C)n2)CC(c2ccccc2)=NO1)c1cccc(C)n1 (stereo not drawn) [compound 621]
logP (method marked [b] in Table 1): 5.9^[b]

CC(=NOc1nc(Cl)nc(ON=C(C)c2cccc(C)n2)c1Cl)c1cccc(C)n1 (single isomer, unassigned) [compound 779]
logP (value marked [b]): 4.62^[b]
logP (value marked [c]): 5.09^[c]

Cc1cccc(C(CC(C)C)=NOCCCON=C(CC(C)C)c2cccc(C)n2)n1 (single isomer, unassigned) [compound 114]
logP [2]: 5.92^[a] (isomer A)

CC(=NOCC1(CON=C(C)c2cccc(C)n2)CC(c2ccc(Cl)cc2)=NO1)c1cccc(C)n1 (stereo not drawn) [compound 601]
logP (method marked [b] in Table 1): 4.67^[b]

C=C(CO/N=C(\N)c1nc(C2CC2)cc(C2CC2)n1)CO/N=C(\N)c1nc(C2CC2)cc(C2CC2)n1 [compound 47]
logP [1]: 3.33^[b]

CC(=NOCCCCON=C(C)c1ccccn1)c1ccccn1 [compound 124]
logP [1]: 3.00^[b]

C=C(CON=C(C)c1cccc(C)n1)CON=C(C)c1nc(C)c(C)s1 [Compound 18]
logP [1]: 4.41^[b]

C=C(CON=C(C)c1cccc(C)n1)CON=C(C)c1sc(C)nc1C (single isomer, unassigned) [compound 545]
logP (method marked [b] in Table 1): 3.58^[b] (isomer B)

CC(=NOC(=O)NCCCC(C)CNC(=O)ON=C(C)c1cccc(C)n1)c1cccc(C)n1 (stereo not drawn) [compound 863]
logP (value marked [a]): 2.46^[a]

C=C(CON=C(C)c1cccc(C)n1)CON=C(c1ccccc1)c1cccc(C)n1 [compound 357]
logP (value marked [b]): 3.65^[b]

CCCC(=NOCC1(CON=C(CCC)c2cccc(C)n2)CC(C(C)(C)C)=NO1)c1cccc(C)n1 (stereo not drawn) [compound 620]
logP (method marked [b] in Table 1): 6.22^[b]

CC(=NOCC(C)(C)CON=C(C)c1nccn1C)c1nccn1C [compound 576]
logP (method marked [a] in Table 1): 1.07^[a]

CC(=NOCC(C)CON=C(C)c1nc(C)ccc1C)c1nc(C)ccc1C (single isomer, unassigned) [Compound 267]
logP (value marked [b]): 2.5^[b] (isomer B)

C=C(CON=C(C)c1cccc(C)n1)CON=C(C)c1ncc(Cl)cc1Cl [compound 194]
logP [1]: 4.72^b]

CC(=NOCC1(CON=C(C)c2cccc(NCC3CC3)n2)CCC1)c1cccc(NCC2CC2)n1 [compound 850]
logP (value marked [b]): 2.28^[b]

Cc1cc(C)nc(C(N)=NOCCCCON=C(N)c2cc(C)cc(C)n2)c1 [compound 123]
logP [1]: 2.67^[b]

Cc1cc(C)nc(/C(N)=N/OCC(C)CO/N=C(\N)c2nc(C)cc(C)n2)n1 (stereo not drawn) [drawing 85, N′,N″-[(2-methylpropane-1,3-diyl)bis(oxy)]bis(4,6-dimethylpyrimidine-2-carboximidamide)]
chromatographic logP: 1.81

CC(=NOCC1(CON=C(C)c2ccc(C)c(C)n2)CC1)c1cc(C)cc(C)n1 [Compound 695]
logP (method marked [b] in Table 1): 2.61^[b]
logP (method marked [c] in Table 1): 6.02^[c]

CCC(=NOCC(C)CON=C(CC)c1ccc(C)c(C)n1)c1ccc(C)c(C)n1 (stereo not drawn) [Compound 235]
logP [2]: 4.88^[a]

CC(=NOCCCCCCON=C(c1cccc(C)n1)C(C)C)c1cccc(C)n1 (single isomer, unassigned) [compound 527]
logP (value marked [b]): 6.03^[b](isomer B)

N/C(=N\OC/C=C/CO/N=C(\N)c1ncc(F)cc1F)c1ncc(F)cc1F [compound 723]
logP (method marked [b] in Table 1): 2.42^[b]

CCCC(=NOCC(C)CON=C(CCC)c1ccc(C)c(C)n1)c1ccc(C)c(C)n1 (stereo not drawn) [Compound 262]
logP (value marked [a]): 6.26^[a]

C=C(CON=C(C)c1cccc(C)n1)CON=C(C)c1cccc(Br)n1 [Compound 206]
logP [1]: 4.98^[b]

C=C(CON=C(C)c1ccc2c(c1)CC(C)O2)CON=C(C)c1cccc(C)n1 (stereo not drawn) [compound 468]
logP (value marked [b]): 4.85^[b]

CCC(=NOCC(C)(C)CON=C(C)c1cccc(C)n1)c1ncccc1C [compound 369]
logP (value marked [b]): 4.51^[b]

C=C(CON=C(C)c1ncc(C(F)(F)F)cc1Cl)CON=C(C)c1ncc(C(F)(F)F)cc1Cl [compound 149]
logP [1]: 5.82^[b]

CCC1=NOC(CON=C(CC)c2ccc(C)cn2)(CON=C(CC)c2cccc(C)n2)C1 (racemic) [compound 607]
logP (method marked [b] in Table 1): 4.04^[b]

C=C(CON=C(C)c1cccc(C(F)(F)F)c1)CON=C(C)c1cccc(C)n1 [compound 399]
logP (value marked [b]): 5.36^[b]

C=C(CON=C(C)c1ccccc1)CON=C(C)c1cccc(C)n1 [compound 408]
logP (value marked [b]): 4.51^[b]

CC(=NOCCCCCCON=C(C)c1cnnc(C)n1)c1cccc(C)n1 [compound 344]
logP (value marked [b]): 4.15^[b]

Cc1cc(C)nc(C(N)=NOC/C=C/CON=C(N)c2nc(C)cc(C)n2)n1 [Compound 772]
logP (value marked [b]): 1.62^[b]

CC(=NOCCC(C)ON=C(C)c1nc(C)ccc1C)c1nc(C)ccc1C (single isomer, unassigned) [compound 759]
logP (method marked [b] in Table 1): 3.12^[b]
logP (method marked [c] in Table 1): 5.02^[c]

C=C(CON=C(CC)c1cccc(C)n1)CON=C(CC)c1cccc(C)n1 [Compound 239]
logP [2]: 5.16^[a]

C=C(CON=C(C)c1cccc(C)n1)CON=C(CCC)c1ncccc1C (single isomer, unassigned) [compound 534]
logP (value marked [b]): 3.65^[b] (isomer A)

C/C(=N\OCC(=O)CO/N=C(\C)c1cccc(C)n1)c1cccc(C)n1 [(2E,9E)-2,10-bis(6-methylpyridin-2-yl)-4,8-dioxa-3,9-diazaundeca-2,9-dien-6-one]
chromatographic logP: 2.2

C=C(CON=C(c1cccc(C)n1)C(C)C)CON=C(c1cccc(C)n1)C(C)C (single isomer, unassigned) [compound 274]
logP (value marked [a]): 4.87^[a] (isomer B)

C=C(CON=C(C)c1cccc(C)n1)CON=C(c1cccc(C)n1)C(C)C (single isomer, unassigned) [Compound 672]
logP (method marked [b] in Table 1): 3.87^[b] (isomer A)

COCC#Cc1cc(C)nc(C(C)=NOCC(C)CON=C(C)c2cc(C#CCOC)cc(C)n2)c1 (stereo not drawn) [compound 874]
logP (value marked [a]): 6.76^[a]
logP (value marked [b]): 6.76^[b]
logP (value marked [c]): 6.87^[c]

N/C(=N\OCc1ccc(CO/N=C(\N)c2ncc(F)cc2F)cc1)c1ncc(F)cc1F [compound 719]
logP (method marked [b] in Table 1): 2.96^[b]

CC(=NOCCCCON=C(C)c1cccc(C)n1)c1ccc2c(c1)OCO2 [compound 378]
logP (value marked [b]): 4.35^[b]

C=C(CON=C(C)c1cccc(C)n1)CON=C(N)c1nc(C)c(C)c(C)n1 [compound 191]
logP [1]: 2.13^[b]

CC(=NOCCCCON=C(C)c1sc(C)nc1C)c1cccc(C)n1 (single isomer, unassigned) [compound 374]
logP (value marked [b]): 3.56^[b] (isomer B)

CC(=NOCC(C)(C)CON=C(C)c1cccc(C)n1)c1ccc(Cl)cc1 [compound 485]
logP (value marked [b]): 6.22^[b]

CC1=NOC(CO/N=C(\C)c2cc(C)cc(C)n2)(CO/N=C(\C)c2cc(C)cc(C)n2)C1 [Compound 637]
logP (method marked [b] in Table 1): 1.60^[b]

C=C(CON=C(C)c1ccc(Br)nc1)CON=C(C)c1ccc(Br)nc1 [compound 151]
logP [1]: 4.56^[b]

C=C(CON=C(C#N)c1cccc(C)n1)CON=C(C#N)c1ccc(C)c(C)n1 [compound 828]
logP (value marked [a]): 4.20^[a]

CC(=NOCC1(CON=C(C)c2cc(C)cc(C)n2)CCCCC1)c1cc(C)cc(C)n1 [Compound 553]
logP (method marked [b] in Table 1): 3.87^[b]
logP (method marked [c] in Table 1): 7.36^[c]

CC(=NOCC(C)CON=C(C)c1cccc(C)[n+]1[O-])c1cccc(C)[n+]1[O-] (stereo not drawn) [compound 314]
logP (value marked [b]): 1.69^[b]

CCC(=NOCCCON=C(CC)c1cccc(C)n1)c1cccc(C)n1 [Compound 90]
logP [2]: 4.44^[a]

COc1cc(OC)nc(C(C)=NOCC(C)CON=C(C)c2nc(OC)cc(OC)n2)n1 (stereo not drawn) [Compound 272]
logP (value marked [b]): 4.49^[b]

CC(=NOCC(C)CON=C(C)c1ccccc1Cl)c1cccc(C)n1 (stereo not drawn) [compound 436]
logP (value marked [b]): 5.08^[b]
